# According to ChEMBL document CHEMBL3797088, “Discovery and structure activity relationship study of novel indazole amide inhibitors for extracellular signal-regulated kinase1/2 (ERK1/2)” (Bioorg Med Chem Lett, 2016):
# Target: Mitogen-activated protein kinase 1 (Homo sapiens, UniProt P28482)
# Assay: Inhibition of human recombinant GST-tagged ERK2 expressed in Escherichia coli using ser/thr 3 Peptide as substrate preincubated for 1 hr measured after 1 hr by Z-LYTE assay
# Conditions: not given
# Sequence of Mitogen-activated protein kinase 1 (P28482 whole entry): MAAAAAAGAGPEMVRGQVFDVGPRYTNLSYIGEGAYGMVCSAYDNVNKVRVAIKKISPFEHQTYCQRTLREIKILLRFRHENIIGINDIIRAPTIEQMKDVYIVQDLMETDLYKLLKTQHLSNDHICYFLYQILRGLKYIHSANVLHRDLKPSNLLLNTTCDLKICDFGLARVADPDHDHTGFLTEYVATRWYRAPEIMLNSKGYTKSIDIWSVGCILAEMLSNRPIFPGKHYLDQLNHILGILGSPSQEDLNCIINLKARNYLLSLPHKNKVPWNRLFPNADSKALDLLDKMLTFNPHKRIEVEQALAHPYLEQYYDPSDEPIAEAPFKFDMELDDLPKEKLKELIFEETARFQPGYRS
row,SMILES,IC50 [nM]
1,CC(CNC(=O)c1ccc2[nH]nc(-c3ccncc3)c2c1)Oc1ccccc1 (centres undefined),38.6
2,O=C(N[C@H](CO)c1cccc(Cl)c1)c1ccc2[nH]nc(-c3ccncc3)c2c1,7
3,O=C(NCCc1cccc(Cl)c1)c1ccc2[nH]nc(-c3ccncc3)c2c1,425
4,Cc1cc(-c2n[nH]c3ccc(C(=O)NCc4c(Cl)cnc(Cl)c4Cl)cc23)ccn1,7.9
5,C[C@H](NC(=O)c1ccc2[nH]nc(-c3ccncc3)c2c1)c1cccc(Cl)c1,469
6,O=C(NCc1ccccc1Cl)c1ccc2[nH]nc(-c3ccncc3)c2c1,31.3
7,O=C(NCCCc1ccccc1)c1ccc2[nH]nc(-c3ccncc3)c2c1,33.8
8,CCC(NC(=O)c1ccc2[nH]nc(-c3ccncc3)c2c1)c1cccc(Cl)c1 (centres undefined),58.9
9,O=C(NCCc1ccccc1)c1ccc2[nH]nc(-c3ccncc3)c2c1,19.4
10,Cc1cc(-c2n[nH]c3ccc(C(=O)NC(C)c4ccncc4)cc23)ccn1 (centres undefined),226
11,O=C(NC(CO)c1cccc(Cl)c1)c1ccc2[nH]nc(-c3ccccc3)c2c1 (centres undefined),276
12,O=C(NCc1c(Cl)cccc1Cl)c1ccc2[nH]nc(-c3ccncc3)c2c1,154
13,CC(NC(=O)c1ccc2[nH]nc(-c3ccncc3)c2c1)c1ccccc1Cl (centres undefined),16.7
14,Cc1cc(-c2n[nH]c3ccc(C(=O)N[C@H](C)c4c(Cl)cccc4Cl)cc23)ccn1,632
15,Cc1cc(-c2n[nH]c3ccc(C(=O)NC(CO)c4cccc(Cl)c4)cc23)ccn1 (centres undefined),17.9
16,Nc1cc(-c2n[nH]c3ccc(C(=O)NC(CO)c4cccc(Cl)c4)cc23)ccn1 (centres undefined),15.6
17,O=C(NCCOc1ccccc1)c1ccc2[nH]nc(-c3ccncc3)c2c1,63.3
18,O=C(NC(CO)c1cc(Cl)cc(Cl)c1)c1ccc2[nH]nc(-c3ccncc3)c2c1 (centres undefined),61.1
19,O=C(NCc1ccc(Cl)c(F)c1Cl)c1ccc2[nH]nc(-c3ccncc3)c2c1,11.9

# Target: Mitogen-activated protein kinase 3 (Homo sapiens, UniProt P27361)
# Sequence (P27361 whole entry): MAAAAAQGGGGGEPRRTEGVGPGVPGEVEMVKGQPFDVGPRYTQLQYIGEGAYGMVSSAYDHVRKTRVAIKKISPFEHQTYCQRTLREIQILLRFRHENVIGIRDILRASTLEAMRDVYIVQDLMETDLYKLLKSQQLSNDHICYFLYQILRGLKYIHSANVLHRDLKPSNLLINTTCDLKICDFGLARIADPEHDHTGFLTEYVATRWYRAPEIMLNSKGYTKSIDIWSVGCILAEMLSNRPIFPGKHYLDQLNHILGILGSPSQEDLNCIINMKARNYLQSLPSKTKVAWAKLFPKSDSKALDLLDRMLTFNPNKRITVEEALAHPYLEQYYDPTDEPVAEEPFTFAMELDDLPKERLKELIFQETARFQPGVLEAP
# Assay: Inhibition of human recombinant GST-tagged ERK1 expressed in Escherichia coli using ser/thr 3 Peptide as substrate preincubated for 1 hr measured after 1 hr by Z-LYTE assay
# Conditions: not given
row,SMILES,IC50 [nM]
1,CC(CNC(=O)c1ccc2[nH]nc(-c3ccncc3)c2c1)Oc1ccccc1 (centres undefined),128
2,O=C(N[C@H](CO)c1cccc(Cl)c1)c1ccc2[nH]nc(-c3ccncc3)c2c1,26.3
3,Cc1cc(-c2n[nH]c3ccc(C(=O)NCc4c(Cl)cnc(Cl)c4Cl)cc23)ccn1,16.7
4,O=C(NCc1ccccc1Cl)c1ccc2[nH]nc(-c3ccncc3)c2c1,46.3
5,O=C(NCCCc1ccccc1)c1ccc2[nH]nc(-c3ccncc3)c2c1,42.9
6,CCC(NC(=O)c1ccc2[nH]nc(-c3ccncc3)c2c1)c1cccc(Cl)c1 (centres undefined),78.7
7,O=C(NCCc1ccccc1)c1ccc2[nH]nc(-c3ccncc3)c2c1,38.7
8,CC(NC(=O)c1ccc2[nH]nc(-c3ccncc3)c2c1)c1ccccc1Cl (centres undefined),35.9
9,Cc1cc(-c2n[nH]c3ccc(C(=O)NC(CO)c4cccc(Cl)c4)cc23)ccn1 (centres undefined),53.4
10,Nc1cc(-c2n[nH]c3ccc(C(=O)NC(CO)c4cccc(Cl)c4)cc23)ccn1 (centres undefined),66.9
11,O=C(NCc1ccc(Cl)c(F)c1Cl)c1ccc2[nH]nc(-c3ccncc3)c2c1,29.2

# Tested on: HT-29
# Assay: Antiproliferative activity against human HT-29 cells harboring B-RAF V600E mutant after 72 hrs by SRB assay
# Type: functional, cell-based
# Conditions: HT-29, 72 h
row,SMILES,IC50 [nM]
1,CC(CNC(=O)c1ccc2[nH]nc(-c3ccncc3)c2c1)Oc1ccccc1 (centres undefined),6000
2,O=C(N[C@H](CO)c1cccc(Cl)c1)c1ccc2[nH]nc(-c3ccncc3)c2c1,1900
3,O=C(NCCc1cccc(Cl)c1)c1ccc2[nH]nc(-c3ccncc3)c2c1,15300
4,Cc1cc(-c2n[nH]c3ccc(C(=O)NCc4c(Cl)cnc(Cl)c4Cl)cc23)ccn1,1100
5,C[C@H](NC(=O)c1ccc2[nH]nc(-c3ccncc3)c2c1)c1cccc(Cl)c1,7500
6,O=C(NCc1ccccc1Cl)c1ccc2[nH]nc(-c3ccncc3)c2c1,2800
7,O=C(NCCCc1ccccc1)c1ccc2[nH]nc(-c3ccncc3)c2c1,4500
8,CCC(NC(=O)c1ccc2[nH]nc(-c3ccncc3)c2c1)c1cccc(Cl)c1 (centres undefined),1500
9,O=C(NCCc1ccccc1)c1ccc2[nH]nc(-c3ccncc3)c2c1,3300
10,Cc1cc(-c2n[nH]c3ccc(C(=O)NC(C)c4ccncc4)cc23)ccn1 (centres undefined),10400
11,O=C(NC(CO)c1cccc(Cl)c1)c1ccc2[nH]nc(-c3ccccc3)c2c1 (centres undefined),6000
12,O=C(NCc1c(Cl)cccc1Cl)c1ccc2[nH]nc(-c3ccncc3)c2c1,8400
13,CC(NC(=O)c1ccc2[nH]nc(-c3ccncc3)c2c1)c1ccccc1Cl (centres undefined),3500
14,Cc1cc(-c2n[nH]c3ccc(C(=O)N[C@H](C)c4c(Cl)cccc4Cl)cc23)ccn1,10700
15,Cc1cc(-c2n[nH]c3ccc(C(=O)NC(CO)c4cccc(Cl)c4)cc23)ccn1 (centres undefined),2400
16,Nc1cc(-c2n[nH]c3ccc(C(=O)NC(CO)c4cccc(Cl)c4)cc23)ccn1 (centres undefined),20900
17,O=C(NCCOc1ccccc1)c1ccc2[nH]nc(-c3ccncc3)c2c1,9100
18,O=C(NC(CO)c1cc(Cl)cc(Cl)c1)c1ccc2[nH]nc(-c3ccncc3)c2c1 (centres undefined),3400
19,O=C(NCc1ccc(Cl)c(F)c1Cl)c1ccc2[nH]nc(-c3ccncc3)c2c1,1500
